Results on 19 compounds are retold here after US8916702B2 (priority 2012, dated 2014).

This experiment has as its system HCV pseudoparticles (genotype 1a HCV E1 and E2 envelope, H77C isolate). In words: microbe, parasite or virus in culture. Conditions: Hepatitis C virus. In kind it is cell-based.
The mark [1] stands for this setting: Huh-7, 48 h, HCV pseudoparticle infection of Huh7 cells, luciferase 2 days after infection, average of duplicates.
Setting [2] is: Huh-7, 48 h, read-out: Activity (EC50 class), HCV pseudoparticle infection of Huh7 cells, luciferase 2 days after infection, EC50 expressed as class A/B.
Setting [3] is: Huh-7, read-out: Activity (EC50 class), HCV pseudoparticles (genotype 1a, H77C) in Huh7 cells, EC50 expressed as class A/B.
[4] abbreviates: Huh-7, 48 h, read-out: Activity (EC50 class), HCV pseudoparticles, Huh7 cells, luciferase 2 days after infection, average of duplicates.

One may read the pEC50 as the negative decadic logarithm of the EC50, by convention in mol/L.

pEC50: −log10 of the molar value. Read-outs that look alike come from different tables or passages of the source.

For `COC(=O)[C@H](CCNC(=O)C(=O)NC1Cc2ccccc2C1)NC(=O)c1ccc(Nc2nc(NC3(c4ccc(Cl)cc4)CC3)nc(OCC(F)(F)F)n2)cc1` [Compound 1314], the pEC50 was 9.37 under setting [1] and 8.00 to 11.00 under setting [2]. As to `NC(=O)C(=O)NCCCCNC(=O)c1ccc(Nc2nc(NC3(c4ccc(Cl)cc4)CC3)nc(OCC(F)(F)F)n2)cc1` [Compound 3391], the pEC50 under setting [3] is 8.00 to 11.00. Still for that read-out and setting: the result for `O=C(NCCCCNC(=O)c1ccc(Nc2nc(NC3(c4ccc(Cl)cc4)CC3)nc(OCC(F)(F)F)n2)cc1)C(=O)Nc1nccs1` [Compound 3399] reads 8.00 to 11.00. Consider `CN(CCCNC(=O)c1ccc(Nc2nc(NC3(c4ccc(Cl)cc4)CC3)nc(OCC(F)(F)F)n2)cc1)C(=O)C(=O)Nc1cccc(F)c1` [Compound 3443], for which the negative-log EC50 (pEC50) under setting [3] is 8.00 to 11.00. For the compound `O=C(NC/C(=N/C(=O)c1ccc(Nc2nc(NC3(c4ccc(Cl)cc4)CC3)nc(OCC(F)(F)F)n2)cc1)C(=O)O)C(=O)Nc1ccc(Cl)cc1` [Compound 3149], under setting [3], the pEC50 is 8.00 to 11.00. In the case of `Cc1cc2nc(NC(=O)C(=O)NCC(C)(C)CNC(=O)c3ccc(Nc4nc(NC5(c6ccc(Cl)cc6)CC5)nc(OCC(F)(F)F)n4)cc3)sc2cc1C` [Compound 3820], under setting [4], the pEC50 is 8.00 to 11.00.

With `COc1ccccc1CCNC(=O)C(=O)NCC[C@H](NC(=O)c1ccc(Nc2nc(NC3(c4ccc(Cl)cc4)CC3)nc(OCC(F)(F)F)n2)cc1)C(=O)O` [Compound 1329], under setting [2], the pEC50 was 8.00 to 11.00. On to `COC(=O)[C@H](CNC(=O)C(=O)NCc1ccc(F)cc1F)NC(=O)c1ccc(Nc2nc(NC3(c4ccc(Cl)cc4)CC3)nc(OCC(F)(F)F)n2)cc1` [Compound 1134], for which, under setting [2], the pEC50 was 8.00 to 11.00.

For the compound `O=C(NC[C@H](NC(=O)c1ccc(Nc2nc(NC3(c4ccc(Cl)cc4)CC3)nc(OCC(F)(F)F)n2)cc1)C(=O)Cl)C(=O)Nc1cccc(-c2cccnc2)c1` [Compound 3783], under setting [4], the pEC50 was 8.00 to 11.00. As to `O=C(NCC[C@H](NC(=O)c1ccc(Nc2nc(NC3(c4ccc(Cl)cc4)CC3)nc(OCC(F)(F)F)n2)cc1)C(=O)O)C(=O)Nc1cccc(-c2cccnc2)c1` [Compound 3652], the pEC50 runs as follows: (Huh-7, 48 h, HCV pseudoparticles, Huh7 cells, luciferase 2 days after infection, average of duplicates) 9.35; under setting [4], 8.00 to 11.00. Take `COC(=O)[C@H](CCNC(=O)C(=O)NC1CCCC(NC(=O)OC(C)(C)C)C1)NC(=O)c1ccc(Nc2nc(NC3(c4ccc(Cl)cc4)CC3)nc(OCC(F)(F)F)n2)cc1` (some centres unmarked) [Compound 1097]: under setting [2], the pEC50 is 8.00 to 11.00. Regarding `COC(=O)[C@H](CCNC(=O)C(=O)Nc1cc(F)ccc1F)NC(=O)c1ccc(Nc2nc(NC3(c4ccc(Cl)cc4)CC3)nc(OCC(F)(F)F)n2)cc1` [Compound 1503], the pEC50 under setting [2] was 8.00 to 11.00. With `CC(C)(CNC(=O)C(=O)Nc1ccc(F)cc1Cl)CNC(=O)c1ccc(Nc2nc(NC3(c4ccc(Cl)cc4)CC3)nc(OCC(F)(F)F)n2)cc1` [Compound 3405], the pEC50 under setting [3] is 8.00 to 11.00.

Regarding `CN(CCCNC(=O)c1ccc(Nc2nc(NC3(c4ccc(Cl)cc4)CC3)nc(OCC(F)(F)F)n2)cc1)C(=O)C(=O)Nc1ccc(F)cc1F` [Compound 3449], the negative logarithm of the EC50 (pEC50) under setting [3] was 8.00 to 11.00. Turning to `O=C(NCC(O)CNC(=O)c1ccc(Nc2nc(NC3(c4ccc(Cl)cc4)CC3)nc(OCC(F)(F)F)n2)cc1)C(=O)Nc1ccc(F)cc1` (centres unmarked) [Compound 3365], the pEC50 is, setting by setting: (Huh-7, 48 h, HCV pseudoparticles (genotype 1a, H77C) in Huh7 cells, average of duplicate, luciferase 2 days after infection) 10.62; under setting [3], 8.00 to 11.00. In the case of `CC(C)(CNC(=O)C(=O)Nc1nc2ccccc2s1)CNC(=O)c1ccc(Nc2nc(NC3(c4ccc(Cl)cc4)CC3)nc(OCC(F)(F)F)n2)cc1` [Compound 3376], the pEC50 under setting [3] was 8.00 to 11.00. `COC(=O)C(CNC(=O)C(=O)NC1CC(C)(C)CC(C)(C)C1)NC(=O)c1ccc(Nc2nc(NC3(c4ccc(Cl)cc4)CC3)nc(OCC(F)(F)F)n2)cc1` (centres unmarked) [Compound 1047]: under setting [2], the pEC50 was 8.00 to 11.00. As to `COC(=O)[C@H](CCNC(=O)C(=O)NCCc1ccc(F)cc1)NC(=O)c1ccc(Nc2nc(NC3(c4ccc(Cl)cc4)CC3)nc(OCC(F)(F)F)n2)cc1` [Compound 1315], the pEC50 is 8.99 under setting [1] and 8.00 to 11.00 under setting [2]. `COc1cc2sc(NC(=O)C(=O)NCC(C)(C)CNC(=O)c3ccc(Nc4nc(NC5(c6ccc(Cl)cc6)CC5)nc(OCC(F)(F)F)n4)cc3F)nc2cc1Cl` [Compound 3680]: the pEC50 under setting [4] is 8.00 to 11.00.
